Measurements as given in patent US20200331904A1, “3-AMINO-[1,2,4]-TRIAZOLE DERIVATIVES AND THEIR USE FOR CONTROLLING UNDESIRED PLANT GROWTH” (Bayer CropScience Aktiengesellschaft, priority 2017, published 2020).

Legend:
Format in all cases: in vivo
Echinochloa crus-galli [1] = assay: Pre-emergence herbicidal efficacy, ECHCG; details: Table B1, application rate 320 g/ha, scored visually after about 3 weeks vs untreated controls
Summary of the method: (§1)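 Visual percent activity relative to untreated plants (0% = like control, 100% = dead), scored about 3 weeks after treatment under greenhouse conditions.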

Lolium rigidum [2] = assay: Pre-emergence herbicidal efficacy, LOLRI; details: Table B1, application rate 320 g/ha, scored visually after about 3 weeks vs untreated controls
Summary of the method: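 Seeds sown in pots and covered with soil. Greenhouse-grown about 3 weeks, then visually scored as % activity vs untreated controls (100% = dead, 0% = like control).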

Setaria viridis = assay: Pre-emergence herbicidal efficacy, SETVI; details: Table B1, application rate 320 g/ha, scored visually after about 3 weeks vs untreated controls
Summary of the method: as §1

Abutilon theophrasti = assay: Pre-emergence herbicidal efficacy, ABUTH; details: Table B1, application rate 320 g/ha, scored visually after about 3 weeks vs untreated controls
Summary of the method: as §1

Amaranthus retroflexus [3] = assay: Pre-emergence herbicidal efficacy, AMARE; details: Table B1, application rate 320 g/ha, scored visually after about 3 weeks vs untreated controls
Summary of the method: as §1

Matricaria inodora = assay: Pre-emergence herbicidal efficacy, MATIN; details: Table B1, application rate 320 g/ha, scored visually after about 3 weeks vs untreated controls
Summary of the method: as §1

Polygonum convolvulus = assay: Pre-emergence herbicidal efficacy, POLCO; details: Table B1, application rate 320 g/ha, scored visually after about 3 weeks vs untreated controls
Summary of the method: as §1

Stellaria media [4] = assay: Pre-emergence herbicidal efficacy, STEME; details: Table B1, application rate 320 g/ha, scored visually after about 3 weeks vs untreated controls
Summary of the method: as §1

Viola tricolor [5] = assay: Pre-emergence herbicidal efficacy, VIOTR; details: Table B1, application rate 320 g/ha, scored visually after about 3 weeks vs untreated controls
Summary of the method: as §1

Veronica persica [6] = assay: Pre-emergence herbicidal efficacy, VERPE; details: Table B1, application rate 320 g/ha, scored visually after about 3 weeks vs untreated controls
Summary of the method: as §1

harmful plants [7] = assay: Pre-emergence herbicidal action; details: applied pre-emergence
Excerpt: C.1 Pre-Emergence Herbicidal Action and Crop Plant Compatibility
Seeds of monocotyledonous and dicotyledonous weed plants and crop plants are placed in plastic or organic planting pots and covered with soil. The compounds of the invention, formulated in the form of wettable powders (WP) or as emulsion concentrates (EC), are then applied onto the surface of the covering soil as aqueous suspension or emulsion with addition of 0.5% additive at a water application rate of […] (converted). After the treatment, the pots are placed in a greenhouse and kept under good growth conditions for the trial plants. After about 3 weeks, the effect of the preparations is scored visually in comparison with untreated controls as percentages. For example, 100% activity=the plants have died, 0% activity=like control plants.

Echinochloa crus-galli [8] = assay: Post-emergence herbicidal efficacy, ECHCG; details: application rate 320 g/ha, rated visually after about 3 weeks
Excerpt: (§2) ABUTH: Abutilon theophrasti ALOMY: Alopecurus myosuroides AMARE: Amaranthus retroflexus AVEFA: Avena fatua CYPES: Cyperus esculentus ECHCG: Echinochloa crus-galli LOLMU: Lolium multiflorum MATIN: Matricaria inodora PHBPU: Ipomoea purpurea POLCO: Polygonum convolvulus SETVI: Setaria viridis STEME: Stellaria media VERPE: Veronica persica VTOTR: Viola tricolor
(§3) C.2 Post-Emergence Herbicidal Action and Crop Plant Compatibility
(§4) Seeds of monocotyledonous and dicotyledonous weeds and crop plants are placed in sandy loam in plastic or organic planting pots, covered with soil and cultivated in a greenhouse under controlled growth conditions. 2 to 3 weeks after sowing, the test plants are treated at the one-leaf stage. The compounds of the invention, formulated in the form of wettable powders (WP) or as emulsion concentrates (EC), are then sprayed onto the green parts of the plants as aqueous suspension or emulsion with addition of 0.5% additive at a water application rate of […] (converted). After the test plants had been kept in the greenhouse under optimum growth conditions for about 3 weeks, the activity of the preparations is rated visually in comparison to untreated controls. For example, 100% activity=the plants have died, 0% activity=like control plants.

Lolium rigidum [9] = assay: Post-emergence herbicidal efficacy, LOLRI; details: application rate 320 g/ha, rated visually after about 3 weeks
Procedure: as §3, §4

Amaranthus retroflexus [10] = assay: Post-emergence herbicidal efficacy, AMARE; details: application rate 320 g/ha, rated visually after about 3 weeks
Excerpt: as §2, §3, §4

Stellaria media [11] = assay: Post-emergence herbicidal efficacy, STEME; details: application rate 320 g/ha, rated visually after about 3 weeks
Excerpt: as §2, §3, §4

Viola tricolor [12] = assay: Post-emergence herbicidal efficacy, VIOTR; details: application rate 320 g/ha, rated visually after about 3 weeks (Table B5)
Summary of the method: (§5)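 Greenhouse plants in sandy loam were sprayed at the one-leaf stage, 2–3 weeks after sowing. After about 3 weeks, activity was rated visually against untreated controls, from 0% (like control) to 100% (plants dead).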

Veronica persica [13] = assay: Post-emergence herbicidal efficacy, VERPE; details: application rate 320 g/ha, rated visually after about 3 weeks (Table B5)
Summary of the method: as §5

harmful plants [14] = assay: Post-emergence herbicidal action; details: applied post-emergence
Procedure: as §3, §4

SMILES: Cc1ccc2c(c1)C(Nc1nc3n(n1)CCC(=O)N3C)CCC2 (stereo not drawn) [Example I-231]
- Herbicidal efficacy against ECHCG (Echinochloa crus-galli [1]): 100%
- Herbicidal efficacy against LOLRI (Lolium rigidum [2]): 100%
- Herbicidal efficacy against SETVI (Setaria viridis): 100%
- Herbicidal efficacy against ABUTH (Abutilon theophrasti): 100%
- Herbicidal efficacy against AMARE (Amaranthus retroflexus [3]): 100%
- Herbicidal efficacy against MATIN (Matricaria inodora): 100%
- Herbicidal efficacy against POLCO (Polygonum convolvulus): 100%
- Herbicidal efficacy against STEME (Stellaria media [4]): 100%
- Herbicidal efficacy against VIOTR (Viola tricolor [5]): 100%
- Herbicidal efficacy against VERPE (Veronica persica [6]): 100%
- herbicidal efficacy against harmful plants (harmful plants [7]): very good herbicidal efficacy
- Herbicidal efficacy against ECHCG (Echinochloa crus-galli [8]): 100%
- Herbicidal efficacy against LOLRI (Lolium rigidum [9]): 80%
- Herbicidal efficacy against AMARE (Amaranthus retroflexus [10]): 80%
- Herbicidal efficacy against STEME (Stellaria media [11]): 80%
- Herbicidal efficacy against VIOTR (Viola tricolor [12]): 90%
- Herbicidal efficacy against VERPE (Veronica persica [13]): 90%
- herbicidal efficacy against harmful plants (harmful plants [14]): very good herbicidal efficacy
